# Patent US11911349B2, “Rapidly improving vascular conditions by administering vitamin K” (NATTOPHARMA AS, priority 2018, dated 2024)
# Key:
# [1] = test system: ApoE/LDLR−/− mice; experiment: Example 2: histological assessment of plaque size, composition and vessel wall area in BCA; type: in vivo; conditions: two months
# Text: For the determination of atherosclerotic plaque area and composition BCA was dissected, fixed in 4% buffered formalin and embedded in paraffin. 5 μm-thick serial sections of BCA were collected from proximal, middle and distal parts of artery. Originally developed staining with Unna's orcein combined with Martius, Scarlet and Blue trichrome (OMSB), was applied on every tenth section (50 μm interval between each section) for visualization of collagen, elastin, fibrin, red blood cells and vascular smooth muscle cells within atherosclerotic plaque. The areas of particular components of atherosclerotic plaque as well as artery lumen and wall were determined after Columbus-based software processing (FIG. 1B) using a previously developed algorithm [Gajda M, Jasztal A, Banasik T, Jasek-Gajda E, Chlopicki S. Combined orcein and martius scarlet blue (OMSB) staining for qualitative and quantitative analyses of atherosclerotic plaques in brachiocephalic arteries in apoE/LDLR−/− mice. Histochem Cell Biol 2017. doi:10.1007/s00418-017-1538-8.].
# [2] = test system: ApoE/LDLR−/− mice; experiment: Example 3: MRI assessment of FMD in femoral artery and Ach response in abdominal aorta, young mice; type: in vivo; conditions: for improvement in endothelial function compared with low dose (0.05 mg/kg) for 4 weeks: four weeks
# Protocol: In a first part of the study, the effects of low doses (0.05 mg/kg b.w./day) as well as higher doses (0.5 mg/kg b.w./day and 5 mg/kg b.w./day) of vitamin K2 (MK-7, referred to in this example as simply “vitamin K2,” unless noted otherwise) on endothelial function in ApoE/LDLR−/−mice without well-established atherosclerotic plaque and with early phase of endothelial dysfunction were assessed.
# Mice were randomly assigned to one of four experimental groups: control (untreated group) and three groups treated with vitamin K2 at a dose of 0.05, 0.5, and 5 mg/kg b.w./day, respectively. End-point measurements were performed at the age of 10-16 weeks.
# Magnetic resonance imaging (MRI) experiments were performed using a 9.4T scanner (BioSpec 94/20 USR, Bruker, Germany) located in the Department of Magnetic Resonance Imaging, Institute of Nuclear Physics, Polish Academy of Sciences in Krakow. During the experiment, mice were anaesthetized using isoflurane (Aerrane, Baxter Sp. z o. o., Poland, 1.7 vol %) in an oxygen and air (1:2) mixture and imaged in the supine position. Activity of the heart, respiration, and body temperature (maintained at 37° C. using circulating warm water) were monitored using a Monitoring and Gating System (SA Inc., Stony Brook, N.Y., USA).
# Endothelial function was assessed based on vascular responses to acetylcholine (Ach) administration in brachiocephalic artery (BCA), left common carotid artery (LCA) (FIGS. 6 A and B) and abdominal aorta (AA) (FIG. 6C) as well as to responses to increase in flow (flow-mediated dilatation, FMD) in femoral artery (FA) (FIG. 6D) as described in Bar A, Skorka T, Jasinski K, Sternak M, Bartel Ż, Tyrankiewicz U, et al. Retrospectively-gated MRI for in vivo assessment of endothelium-dependent vasodilatation and endothelial permeability in murine models of endothelial dysfunction. NMR Biomed 2016; 29(8):1088; Sternak M, Bar A, Adamski M G, Mohaissen T, Marczyk B, Kieronska A, et al. The Deletion of Endothelial Sodium Channel α (αENaC) Impairs Endothelium-Dependent Vasodilation and Endothelial Barrier Integrity in Endotoxemia in Vivo. Front Pharmacol 2018; 9:178. doi:10.3389/fphar.2018.00178; and Bar A, Olkowicz M, Tyrankiewicz U, Kus E, Jasinski K, Smolenski R T, et al. Functional and Biochemical Endothelial Profiling In Vivo in a Murine Model of Endothelial Dysfunction; Comparison of Effects of 1-Methylnicotinamide and Angiotensin-converting Enzyme Inhibitor. Front Pharmacol 2017; 8:183. doi:10.3389/fphar.2017.00183).
# Vasomotor response was examined by comparing two time-resolved 3D images of the vessels prior to and 25 minutes after intraperitoneal Ach administration (Sigma-Aldrich, Poznan Poland: 50 μl, 16.6 mg/kg), as well as prior to and 5 minutes after vessel occlusion. Images were acquired using the cine IntraGate™ FLASH 3D sequence, reconstructed with the IntraGate 1.2.b.2 macro (Bruker). End-diastolic volumes of vessels were analyzed using ImageJ software 1.46r (NIH Bethesda, Md., USA) and scripts written in Matlab (MathWorks, Natick, Mass., USA). Imaging parameters included the following: repetition time (TR)—6.4 ms, echo time (TE)—1.4 ms, field of view (FOV)—30×30×5 mm3, matrix size—256×256×30, flip angle (FA)—30°, and number of accumulations (NA)—15, reconstructed to 7 cardiac frames. Total scan time was 10 minutes.
# [3] = test system: endothelial nitric oxide synthase (eNOS)-dependent nitric oxide (NO) production; experiment: Example 3: endothelial NO production in ex vivo aorta by EPR spin-trapping; conditions: 0.05 mg/kg b.w./day, vs untreated age-matched mice
# Text: For measurements of endothelial nitric oxide synthase (eNOS)-dependent nitric oxide (NO) production, EPR spin-trapping with diethyldithiocarbamic acid sodium salt (DETC) was used ex vivo, as described in Przyborowski K, Proniewski B, Czarny J, Smeda M, Sitek B, Zakrzewska A, et al. Vascular Nitric Oxide-Superoxide Balance and Thrombus Formation after Acute Exercise. Med Sci Sport Exerc 2018:1. doi:10.1249/MSS.0000000000001589, with minor modifications. Isolated aorta cleared from surrounding tissue was opened longitudinally and preincubated with 10 μM L-NIL (N6-(1-Iminoethyl)-lysine, hydrochloride) in Krebs-HEPES buffer for 30 minutes at 37° C. in a well of a 48-well plate. Next, 250 μL of Fe(DETC)2 colloid was added and aorta was stimulated with calcium ionophore A23187 (the final concentration was 1 μM) and subsequently, incubated for 90 minutes at 37° C. Finally, aorta was weighed and frozen in liquid nitrogen (suspended in fresh buffer) into the middle of a 400 μL column of Krebs-Hepes buffer and stored at −80° C. until measured. EPR spectra were obtained using an X-band EPR spectrometer (EMX Plus, Bruker, Germany), equipped with a rectangular resonator cavity H102. Signals were quantified by measuring the total amplitude of the NO—Fe(DETC)2 after correction of baseline. The quantitative results of NO production assessed by EPR were expressed in AU/mg of tissue.
# [4] = test system: ApoE/LDLR−/− mice; experiment: Example 3: nitrite and nitrate concentration in plasma, older mice; type: in vivo; conditions: eight weeks
smiles,measurement,setting,value
"CC(C)=CCC/C(C)=C/CC/C(C)=C/CC/C(C)=C/CC/C(C)=C/CC/C(C)=C/CC/C(C)=C/CC1=C(C)C(=O)c2ccccc2C1=O [MK-7, menaquinone-7]","content of collagen in plaque, treated vs untreated",[1]; high dose 10 mg/kg b.w./day,lack of differences
same,decrease in lipid core expressed as percent of plaque,[1]; high dose 10 mg/kg b.w./day,about 17%
same,decrease in vessel wall area (VWA) of BCA,[1]; high dose 10 mg/kg b.w./day,about 5%
same,effect on plaque size,[1]; high dose 10 mg/kg b.w./day,did not result in a beneficial effect
same,lumen area expressed as percent of IWA,[1]; high dose 10 mg/kg b.w./day,did not change
same,plaque area expressed as percent of IWA,[1]; high dose 10 mg/kg b.w./day,did not change
same,"content of collagen in plaque, treated vs untreated",[1]; low dose 0.03 mg/kg b.w./day,lack of differences
same,decrease in lipid core expressed as percent of plaque,[1]; low dose 0.03 mg/kg b.w./day,about 17%
same,decrease in vessel wall area (VWA) of BCA,[1]; low dose 0.03 mg/kg b.w./day,about 5%
same,effect on plaque size,[1]; low dose 0.03 mg/kg b.w./day,did not result in a beneficial effect
same,lumen area expressed as percent of IWA,[1]; low dose 0.03 mg/kg b.w./day,did not change
same,plaque area expressed as percent of IWA,[1]; low dose 0.03 mg/kg b.w./day,did not change
same,internal wall area (IWA),"[1]; lower dose 0.03 mg/kg b.w./day, not visible for entire vessel",decreased only in the middle part of the vessel
same,"Ach response in AA, volume changes","[2]; 0.05 mg/kg b.w./day, eight weeks, untreated −16.22%, p=0.05",−0.65%
same,magnitude of endothelium-dependent response to acetylcholine in abdominal aorta (ACH-AA),"[2]; 0.05 mg/kg b.w./day, two weeks",lack of changes
same,magnitude of vasodilatation in response to increase in flow in femoral artery (FMD-FA),"[2]; 0.05 mg/kg b.w./day, two weeks",lack of changes
same,improvement in endothelial function compared with low dose (0.05 mg/kg) for 4 weeks,[2]; 0.5 mg/kg b.w./day,not superior
same,improvement in endothelial function compared with low dose (0.05 mg/kg) for 4 weeks,[2]; 5 mg/kg b.w./day,not superior
same,"Ach response in AA, volume changes","[2]; 5 mg/kg b.w./day, two weeks, untreated −7.72%, p=0.1",0.16%
same,nitric oxide production in ex vivo aorta measured by EPR,[3],increased
same,concentration of NO3− in plasma,[4]; 0.03 mg/kg b.w./day,did not change significantly
same,concentration of NO3− in plasma,[4]; 10 mg/kg b.w./day,did not change significantly
same,increase in NO2− concentration in plasma,[4]; high dose 10 mg/kg b.w./day,~42%
same,increase in NO2− concentration in plasma,[4]; low dose 0.03 mg/kg b.w./day,about 58%
